Measurements: BindingDB's records for doi:10.1021/jm070728r (University of Bari, 2007)

What was measured:
[1] = molecular target: T1, Amine oxidase [flavin-containing] A (Rattus norvegicus, UniProt P21396); assay: MAO Inhibition Assay; settings: pH 7.4; 37 °C
T1 sequence (P21396 whole entry): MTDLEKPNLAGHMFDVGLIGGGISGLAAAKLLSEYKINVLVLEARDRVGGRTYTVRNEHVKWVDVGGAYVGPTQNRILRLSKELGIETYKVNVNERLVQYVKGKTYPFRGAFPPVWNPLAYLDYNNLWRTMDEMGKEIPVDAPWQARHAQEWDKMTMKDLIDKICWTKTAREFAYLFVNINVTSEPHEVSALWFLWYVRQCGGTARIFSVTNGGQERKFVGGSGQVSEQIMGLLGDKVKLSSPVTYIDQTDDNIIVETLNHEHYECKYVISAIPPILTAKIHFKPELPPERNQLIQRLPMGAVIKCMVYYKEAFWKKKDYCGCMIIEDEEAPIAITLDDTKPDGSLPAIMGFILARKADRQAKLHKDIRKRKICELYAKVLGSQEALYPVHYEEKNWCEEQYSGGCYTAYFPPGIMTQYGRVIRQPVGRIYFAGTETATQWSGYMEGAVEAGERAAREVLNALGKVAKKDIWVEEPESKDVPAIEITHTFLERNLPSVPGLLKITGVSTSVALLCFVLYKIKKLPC
Experimental: (§1) A continuous spectrophotometric assay that monitors the rate of oxidation of the nonselective MAO substrate kynuramine into 4-hydroxyquinoline was used. clorgyline or selegiline was preincubated with the suspension for 5 min to measure MAO-B or MAO-A activity, respectively. […] IC50 values were determined and calculated from a hyperbolic equation. Each assay was performed in triplicate on four to six separate homogenates.

[2] = molecular target: T2, Amine oxidase [flavin-containing] B (Rattus norvegicus, UniProt P19643); assay: MAO Inhibition Assay
T2 sequence (P19643 whole entry): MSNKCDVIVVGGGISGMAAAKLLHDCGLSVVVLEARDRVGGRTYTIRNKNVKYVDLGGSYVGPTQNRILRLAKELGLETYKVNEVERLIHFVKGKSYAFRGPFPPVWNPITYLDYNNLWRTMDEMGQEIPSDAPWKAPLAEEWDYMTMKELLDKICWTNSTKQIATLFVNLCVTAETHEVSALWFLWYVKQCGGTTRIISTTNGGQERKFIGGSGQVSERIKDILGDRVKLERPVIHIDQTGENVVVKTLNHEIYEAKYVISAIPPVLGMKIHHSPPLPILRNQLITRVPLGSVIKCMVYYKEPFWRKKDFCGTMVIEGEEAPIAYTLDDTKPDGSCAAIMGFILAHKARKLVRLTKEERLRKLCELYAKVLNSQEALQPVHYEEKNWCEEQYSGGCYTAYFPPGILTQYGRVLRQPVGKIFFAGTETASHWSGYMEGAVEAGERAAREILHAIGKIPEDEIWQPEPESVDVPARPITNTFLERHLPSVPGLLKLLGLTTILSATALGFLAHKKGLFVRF
Experimental: as §1

c1ccc(-c2cc3c(nn2)-c2ccccc2C3)cc1
IC50 [1]: > 100 µM

c1ccc(-c2nc3cc4ccccc4c-3c[nH]2)cc1 [2-phenyl-9H-indeno[2,1-d]pyrimidine]
IC50 [1]: 16.7 µM
IC50 [2]: 13 µM
